System: serum uric acid
Assay: Serum uric acid level after 8 weeks of daily intake in subjects with hyperuricemia
Assay type: in vivo, human
Conditions: for Serum uric acid level, After 8 weeks: daily intake
Procedure: Tests were conducted with subjects with hyperuricemia having high serum uric acid levels (7.1 mg/dl or higher) after their written informed consents were obtained. […] Their serum uric acid levels were measured before the intake and after 8 weeks of the intake. A sign test was used as the test of significance.

## NCC(=O)O [Gly, glycine]
Average of the group (n=4)
  Amount of change: -0.13 mg/dL
  Serum uric acid level, Before start of intake: 7.73 mg/dL
  Serum uric acid level, After 8 weeks: 7.60 mg/dL
Subject A
  Amount of change: 0.4 mg/dL
  Serum uric acid level, Before start of intake: 8.9 mg/dL
  Serum uric acid level, After 8 weeks: 9.3 mg/dL
Subject B
  Amount of change: 0.0 mg/dL
  Serum uric acid level, Before start of intake: 7.8 mg/dL
  Serum uric acid level, After 8 weeks: 7.8 mg/dL
Subject C
  Amount of change: -0.5 mg/dL
  Serum uric acid level, Before start of intake: 7.1 mg/dL
  Serum uric acid level, After 8 weeks: 6.6 mg/dL
Subject D
  Amount of change: -0.4 mg/dL
  Serum uric acid level, Before start of intake: 7.1 mg/dL
  Serum uric acid level, After 8 weeks: 6.7 mg/dL
Subjects with hyperuricemia
  Change of serum uric acid levels after 8 weeks of continuous intake (in words): slightly decreased after 8 weeks of continuous intake, but the decreases were not significant

Reference: patent US11173143B2, “Composition for decreasing serum uric acid level” (ASAHI GROUP HOLDINGS, LTD., priority 2017, dated 2021)
